Laboratory results reported in PMC2586422 (Bioorganic & medicinal chemistry, 2008).

Key:
[1] = test system: MCF-7, SF-268, NCI-H460; experiment: Human cell growth inhibition, three cell lines together; format: cell-based; conditions: read-out: IC50 averaged over the three cell lines investigated
[2] = test system: HIV-1 RT; conditions: cited from earlier work
[3] = target: T1, Human FPPS (farnesyl diphosphate synthase) (Homo sapiens, UniProt P14324); experiment: FPPS inhibition; format: biochemical
T1 sequence (P14324 1-419): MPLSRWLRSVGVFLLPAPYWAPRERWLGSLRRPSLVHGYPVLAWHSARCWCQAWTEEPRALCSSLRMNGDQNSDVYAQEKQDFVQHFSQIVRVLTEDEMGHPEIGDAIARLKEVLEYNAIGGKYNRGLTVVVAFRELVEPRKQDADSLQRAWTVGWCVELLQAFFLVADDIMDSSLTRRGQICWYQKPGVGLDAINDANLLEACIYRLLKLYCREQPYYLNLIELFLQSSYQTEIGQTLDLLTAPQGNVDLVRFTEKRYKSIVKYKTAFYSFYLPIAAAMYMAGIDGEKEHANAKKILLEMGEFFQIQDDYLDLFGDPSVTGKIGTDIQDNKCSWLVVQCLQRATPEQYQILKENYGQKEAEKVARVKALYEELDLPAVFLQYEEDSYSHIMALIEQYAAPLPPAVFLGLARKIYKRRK

SMILES | IC50 [1] | also measured
O=P(O)(O)C(Nc1cccc(-c2ccccc2)c1)P(=O)(O)O [Compound 3] | ~229 µM | activity in inhibiting NRTI excision (in words) ([2]; previous work ref 11): some activity
NCCC(O)(P(=O)(O)O)P(=O)(O)O [Compound 4, pamidronate] |  | inhibition of the phosphorolytic activity of RT (in words) [2]: competitively inhibited
O=P(O)(O)C(O)(Cc1ccc(Cl)c(Cl)c1)P(=O)(O)O [Compound 5] |  | IC50 [3]: 8.5 µM
O=P(O)(O)C(O)(Cn1ccnc1)P(=O)(O)O [Compound 36, zoledronate] | ~15 µM | 
O=P(O)(O)C(O)(Cc1cnc2ccccn12)P(=O)(O)O [Compound 44, minodronate] | ~5 µM | 
